Measurements taken from PubChem BioAssay (NCI).
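Step 1: Grow cells in 96-well plates. Step 2: Expose to compound for 48 hours at 5 concentrations. Step 3: Interpolate endpoints linearly; if unreached, use highest concentration. At the GI50, growth is halved. TGI denotes the concentration required for complete inhibition of growth.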

What was measured:
Assay in all cases: NCI anticancer screen, dose series, 48 h
NCI-H460 lung = tested on: NCI-H460 lung
MALME-3M melanoma = tested on: MALME-3M melanoma
SW-620 colon = tested on: SW-620 colon
SK-MEL-5 melanoma = tested on: SK-MEL-5 melanoma
NCI-H226 lung = tested on: NCI-H226 lung
CCRF-CEM leukemia = tested on: CCRF-CEM leukemia
SN12C renal = tested on: SN12C renal
OVCAR-3 ovarian = tested on: OVCAR-3 ovarian
PC-3 prostate = tested on: PC-3 prostate
786-0 renal = tested on: 786-0 renal
RPMI-8226 leukemia = tested on: RPMI-8226 leukemia
NCI/ADR-RES ovarian = tested on: NCI/ADR-RES ovarian
HL-60(TB) leukemia = tested on: HL-60(TB) leukemia
RXF 393 renal = tested on: RXF 393 renal
SK-MEL-28 melanoma = tested on: SK-MEL-28 melanoma
A498 renal = tested on: A498 renal
SF-295 CNS = tested on: SF-295 CNS
HS 578T breast = tested on: HS 578T breast
MDA-MB-435 = tested on: MDA-MB-435
CAKI-1 renal = tested on: CAKI-1 renal
DU-145 prostate = tested on: DU-145 prostate
HCT-15 colon = tested on: HCT-15 colon
SK-MEL-2 melanoma = tested on: SK-MEL-2 melanoma
SR leukemia = tested on: SR leukemia
TK-10 renal = tested on: TK-10 renal
KM12 colon = tested on: KM12 colon
SF-539 CNS = tested on: SF-539 CNS
HT29 colon = tested on: HT29 colon
T-47D breast = tested on: T-47D breast
SK-OV-3 ovarian = tested on: SK-OV-3 ovarian
U251 CNS = tested on: U251 CNS
HOP-62 NSCLC = tested on: HOP-62 NSCLC
HCT-116 colon = tested on: HCT-116 colon
SF-268 CNS = tested on: SF-268 CNS
NCI-H23 lung = tested on: NCI-H23 lung
SNB-75 CNS = tested on: SNB-75 CNS
MCF7 breast = tested on: MCF7 breast
OVCAR-8 ovarian = tested on: OVCAR-8 ovarian
UACC-257 melanoma = tested on: UACC-257 melanoma
A549 NSCLC = tested on: A549 NSCLC
MOLT-4 leukemia = tested on: MOLT-4 leukemia
NCI-H522 lung = tested on: NCI-H522 lung
M14 melanoma = tested on: M14 melanoma
HOP-92 NSCLC = tested on: HOP-92 NSCLC
OVCAR-5 ovarian = tested on: OVCAR-5 ovarian
UO-31 renal = tested on: UO-31 renal
OVCAR-4 ovarian = tested on: OVCAR-4 ovarian
BT-549 breast = tested on: BT-549 breast
SNB-19 CNS = tested on: SNB-19 CNS
IGROV1 ovarian = tested on: IGROV1 ovarian
UACC-62 melanoma = tested on: UACC-62 melanoma
K-562 leukemia = tested on: K-562 leukemia
MDA-MB-231 breast = tested on: MDA-MB-231 breast
COLO 205 colon = tested on: COLO 205 colon
ACHN renal = tested on: ACHN renal
HCC-2998 colon = tested on: HCC-2998 colon
LOX IMVI melanoma = tested on: LOX IMVI melanoma
EKVX NSCLC = tested on: EKVX NSCLC

## COC(=O)[C@H](CCCCNC(=O)OCc1ccccc1)NC(=O)[C@@H](NC(=O)Nc1cc(C(F)(F)F)cc(C(F)(F)F)c1)C(C)C
NCI-H460 lung
  GI50: > 10 µM
  TGI: > 10 µM
MALME-3M melanoma
  GI50: > 10 µM
  TGI: > 10 µM
SW-620 colon
  GI50: > 10 µM
  TGI: > 10 µM
SK-MEL-5 melanoma
  GI50: > 10 µM
  TGI: > 10 µM
NCI-H226 lung
  GI50: > 10 µM
  TGI: > 10 µM
CCRF-CEM leukemia
  GI50: > 10 µM
  TGI: > 10 µM
SN12C renal
  GI50: > 10 µM
  TGI: > 10 µM
OVCAR-3 ovarian
  GI50: > 10 µM
  TGI: > 10 µM
PC-3 prostate
  GI50: > 10 µM
  TGI: > 10 µM
786-0 renal
  GI50: > 10 µM
  TGI: > 10 µM
RPMI-8226 leukemia
  GI50: > 10 µM
  TGI: > 10 µM
NCI/ADR-RES ovarian
  GI50: > 10 µM
  TGI: > 10 µM
HL-60(TB) leukemia
  GI50: > 10 µM
  TGI: > 10 µM
RXF 393 renal
  GI50: > 10 µM
  TGI: > 10 µM
SK-MEL-28 melanoma
  GI50: > 10 µM
  TGI: > 10 µM
A498 renal
  GI50: > 10 µM
  TGI: > 10 µM
SF-295 CNS
  GI50: > 10 µM
  TGI: > 10 µM
HS 578T breast
  GI50: > 10 µM
  TGI: > 10 µM
MDA-MB-435
  GI50: > 10 µM
  TGI: > 10 µM
CAKI-1 renal
  GI50: > 10 µM
  TGI: > 10 µM
DU-145 prostate
  GI50: > 10 µM
  TGI: > 10 µM
HCT-15 colon
  GI50: > 10 µM
  TGI: > 10 µM
SK-MEL-2 melanoma
  GI50: > 10 µM
  TGI: > 10 µM
SR leukemia
  GI50: > 10 µM
  TGI: > 10 µM
TK-10 renal
  GI50: > 10 µM
  TGI: > 10 µM
KM12 colon
  GI50: > 10 µM
  TGI: > 10 µM
SF-539 CNS
  GI50: > 10 µM
  TGI: > 10 µM
HT29 colon
  GI50: > 10 µM
  TGI: > 10 µM
T-47D breast
  GI50: > 10 µM
  TGI: > 10 µM
SK-OV-3 ovarian
  GI50: > 10 µM
  TGI: > 10 µM
U251 CNS
  GI50: > 10 µM
  TGI: > 10 µM
HOP-62 NSCLC
  GI50: > 10 µM
  TGI: > 10 µM
HCT-116 colon
  GI50: > 10 µM
  TGI: > 10 µM
SF-268 CNS
  GI50: > 10 µM
  TGI: > 10 µM
NCI-H23 lung
  GI50: > 10 µM
  TGI: > 10 µM
SNB-75 CNS
  GI50: > 10 µM
  TGI: > 10 µM
MCF7 breast
  GI50: > 10 µM
  TGI: > 10 µM
OVCAR-8 ovarian
  GI50: > 10 µM
  TGI: > 10 µM
UACC-257 melanoma
  GI50: > 10 µM
  TGI: > 10 µM
A549 NSCLC
  GI50: > 10 µM
  TGI: > 10 µM
MOLT-4 leukemia
  GI50: > 10 µM
  TGI: > 10 µM
NCI-H522 lung
  GI50: > 10 µM
  TGI: > 10 µM
M14 melanoma
  GI50: > 10 µM
  TGI: > 10 µM
HOP-92 NSCLC
  GI50: > 10 µM
  TGI: > 10 µM
OVCAR-5 ovarian
  GI50: > 10 µM
  TGI: > 10 µM
UO-31 renal
  GI50: > 10 µM
  TGI: > 10 µM
OVCAR-4 ovarian
  GI50: > 10 µM
  TGI: > 10 µM
BT-549 breast
  GI50: > 10 µM
  TGI: > 10 µM
SNB-19 CNS
  GI50: > 10 µM
  TGI: > 10 µM
IGROV1 ovarian
  GI50: > 10 µM
  TGI: > 10 µM
UACC-62 melanoma
  GI50: > 10 µM
  TGI: > 10 µM
K-562 leukemia
  GI50: > 10 µM
  TGI: > 10 µM
MDA-MB-231 breast
  GI50: > 10 µM
  TGI: > 10 µM
COLO 205 colon
  GI50: > 10 µM
  TGI: > 10 µM
ACHN renal
  GI50: > 10 µM
  TGI: > 10 µM
HCC-2998 colon
  GI50: > 10 µM
  TGI: > 10 µM
LOX IMVI melanoma
  GI50: > 10 µM
  TGI: > 10 µM

## O=C(CC1Sc2ccccc2NC1=O)NNc1ccc(F)cc1 (stereo unspecified)
NCI-H460 lung
  GI50: 30.8 µM
  TGI: > 100 µM
MALME-3M melanoma
  GI50: > 100 µM
  TGI: > 100 µM
SW-620 colon
  GI50: 38.5 µM
  TGI: > 100 µM
SK-MEL-5 melanoma
  GI50: 46.1 µM
  TGI: > 100 µM
NCI-H226 lung
  GI50: 41.3 µM
  TGI: > 100 µM
CCRF-CEM leukemia
  GI50: > 100 µM
  TGI: > 100 µM
SN12C renal
  GI50: 22.1 µM
  TGI: > 100 µM
OVCAR-3 ovarian
  GI50: > 100 µM
  TGI: > 100 µM
PC-3 prostate
  GI50: 64.1 µM
  TGI: > 100 µM
786-0 renal
  GI50: 29.5 µM
  TGI: > 100 µM
RPMI-8226 leukemia
  GI50: 52 µM
  TGI: > 100 µM
NCI/ADR-RES ovarian
  GI50: 22.5 µM
  TGI: > 100 µM
HL-60(TB) leukemia
  GI50: 7.9 µM
  TGI: > 100 µM
RXF 393 renal
  GI50: > 100 µM
  TGI: > 100 µM
SK-MEL-28 melanoma
  GI50: > 100 µM
  TGI: > 100 µM
A498 renal
  GI50: 83.5 µM
  TGI: > 100 µM
SF-295 CNS
  GI50: 12.7 µM
  TGI: > 100 µM
HS 578T breast
  GI50: 72.4 µM
  TGI: > 100 µM
EKVX NSCLC
  GI50: > 100 µM
  TGI: > 100 µM
MDA-MB-435
  GI50: 4.34 µM
  TGI: > 100 µM
CAKI-1 renal
  GI50: 42.5 µM
  TGI: > 100 µM
DU-145 prostate
  GI50: 57 µM
  TGI: > 100 µM
HCT-15 colon
  GI50: 6.76 µM
  TGI: > 100 µM
SK-MEL-2 melanoma
  GI50: 72.9 µM
  TGI: > 100 µM
SR leukemia
  GI50: 14.4 µM
  TGI: > 100 µM
TK-10 renal
  GI50: > 100 µM
  TGI: > 100 µM
KM12 colon
  GI50: 25.2 µM
  TGI: > 100 µM
SF-539 CNS
  GI50: 16.3 µM
  TGI: 61.8 µM
HT29 colon
  GI50: > 100 µM
  TGI: > 100 µM
T-47D breast
  GI50: 14.6 µM
  TGI: > 100 µM
SK-OV-3 ovarian
  GI50: > 100 µM
  TGI: > 100 µM
U251 CNS
  GI50: > 100 µM
  TGI: > 100 µM
HOP-62 NSCLC
  GI50: 66.3 µM
  TGI: > 100 µM
HCT-116 colon
  GI50: 77.3 µM
  TGI: > 100 µM
SF-268 CNS
  GI50: 81 µM
  TGI: > 100 µM
NCI-H23 lung
  GI50: > 100 µM
  TGI: > 100 µM
SNB-75 CNS
  GI50: 14.9 µM
  TGI: > 100 µM
MCF7 breast
  GI50: 52 µM
  TGI: > 100 µM
OVCAR-8 ovarian
  GI50: 9.78 µM
  TGI: > 100 µM
A549 NSCLC
  GI50: 74 µM
  TGI: > 100 µM
MOLT-4 leukemia
  GI50: 5.52 µM
  TGI: > 100 µM
NCI-H522 lung
  GI50: 9.39 µM
  TGI: > 100 µM
M14 melanoma
  GI50: 5.5 µM
  TGI: > 100 µM
HOP-92 NSCLC
  GI50: > 100 µM
  TGI: > 100 µM
OVCAR-5 ovarian
  GI50: > 100 µM
  TGI: > 100 µM
UO-31 renal
  GI50: 7.47 µM
  TGI: > 100 µM
OVCAR-4 ovarian
  GI50: > 100 µM
  TGI: > 100 µM
BT-549 breast
  GI50: > 100 µM
  TGI: > 100 µM
IGROV1 ovarian
  GI50: 40.5 µM
  TGI: > 100 µM
UACC-62 melanoma
  GI50: 6.94 µM
  TGI: > 100 µM
K-562 leukemia
  GI50: 4.67 µM
  TGI: > 100 µM
MDA-MB-231 breast
  GI50: 47.6 µM
  TGI: > 100 µM
COLO 205 colon
  GI50: 55.6 µM
  TGI: > 100 µM
ACHN renal
  GI50: 7.07 µM
  TGI: > 100 µM
HCC-2998 colon
  GI50: 30.9 µM
  TGI: > 100 µM
LOX IMVI melanoma
  GI50: 4.51 µM
  TGI: > 100 µM
